Source: patent US9957247B2, “SecA inhibitors and methods of making and using thereof” (Georgia State University Research Foundation, Inc., priority 2012, dated 2018)
In brackets after ≈: the same amount, converted by molar mass. Where two headings read alike, the source gives them in different places.

Experiments:
EcSecA [1] = biological target: T1, EcSecA (Escherichia coli, UniProt P10408); experiment: biochemical; set-up: species or system E. coli; conditions: IC50, Intrinsic ATPase, Table 1, full-length EcSecA
Target sequence in this assay (P10408 whole entry): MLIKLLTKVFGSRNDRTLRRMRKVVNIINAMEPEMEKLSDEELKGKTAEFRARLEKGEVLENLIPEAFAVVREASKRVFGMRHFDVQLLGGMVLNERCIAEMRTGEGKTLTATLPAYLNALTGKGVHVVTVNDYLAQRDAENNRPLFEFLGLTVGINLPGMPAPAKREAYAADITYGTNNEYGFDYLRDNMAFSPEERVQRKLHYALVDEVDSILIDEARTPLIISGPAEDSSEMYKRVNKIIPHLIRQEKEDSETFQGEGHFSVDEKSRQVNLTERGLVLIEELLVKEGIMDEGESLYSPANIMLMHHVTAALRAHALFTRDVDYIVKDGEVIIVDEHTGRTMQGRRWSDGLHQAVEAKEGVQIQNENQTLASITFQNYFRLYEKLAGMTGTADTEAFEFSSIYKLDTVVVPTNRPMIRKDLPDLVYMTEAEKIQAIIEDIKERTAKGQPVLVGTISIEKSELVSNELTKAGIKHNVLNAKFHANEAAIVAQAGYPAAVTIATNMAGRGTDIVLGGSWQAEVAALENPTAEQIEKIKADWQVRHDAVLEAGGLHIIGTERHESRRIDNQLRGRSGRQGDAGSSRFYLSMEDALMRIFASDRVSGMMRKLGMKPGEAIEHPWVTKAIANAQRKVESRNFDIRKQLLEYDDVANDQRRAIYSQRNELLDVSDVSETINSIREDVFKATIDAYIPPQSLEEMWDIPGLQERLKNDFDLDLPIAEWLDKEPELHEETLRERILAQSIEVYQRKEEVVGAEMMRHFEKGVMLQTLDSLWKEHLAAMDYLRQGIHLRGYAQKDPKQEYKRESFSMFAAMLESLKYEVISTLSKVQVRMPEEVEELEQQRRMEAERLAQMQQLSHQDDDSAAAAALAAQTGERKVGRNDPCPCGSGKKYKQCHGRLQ

[2] = system: S. aureus deletion strains (NorA−, MepA−) and strains (NorA++, MepA++) with over-expressed efflux pumps; experiment: Antimicrobial effect with deletion or over expression of efflux pumps in S. aureus; conditions: for Bactericidal (killing) effect with over expression of efflux pumps / MIC (bacteriostatic) with over expression of efflux pumps: wild type, NorA−/MepA− and NorA++/MepA++ strains
MsSecA = MsSecA (Mycolicibacterium smegmatis, UniProt P71533); experiment: SecA-liposomes ion-channel activity in oocytes, MsSecA; format: cell-based; conditions: Table 1
Sequence of MsSecA (P71533 whole entry): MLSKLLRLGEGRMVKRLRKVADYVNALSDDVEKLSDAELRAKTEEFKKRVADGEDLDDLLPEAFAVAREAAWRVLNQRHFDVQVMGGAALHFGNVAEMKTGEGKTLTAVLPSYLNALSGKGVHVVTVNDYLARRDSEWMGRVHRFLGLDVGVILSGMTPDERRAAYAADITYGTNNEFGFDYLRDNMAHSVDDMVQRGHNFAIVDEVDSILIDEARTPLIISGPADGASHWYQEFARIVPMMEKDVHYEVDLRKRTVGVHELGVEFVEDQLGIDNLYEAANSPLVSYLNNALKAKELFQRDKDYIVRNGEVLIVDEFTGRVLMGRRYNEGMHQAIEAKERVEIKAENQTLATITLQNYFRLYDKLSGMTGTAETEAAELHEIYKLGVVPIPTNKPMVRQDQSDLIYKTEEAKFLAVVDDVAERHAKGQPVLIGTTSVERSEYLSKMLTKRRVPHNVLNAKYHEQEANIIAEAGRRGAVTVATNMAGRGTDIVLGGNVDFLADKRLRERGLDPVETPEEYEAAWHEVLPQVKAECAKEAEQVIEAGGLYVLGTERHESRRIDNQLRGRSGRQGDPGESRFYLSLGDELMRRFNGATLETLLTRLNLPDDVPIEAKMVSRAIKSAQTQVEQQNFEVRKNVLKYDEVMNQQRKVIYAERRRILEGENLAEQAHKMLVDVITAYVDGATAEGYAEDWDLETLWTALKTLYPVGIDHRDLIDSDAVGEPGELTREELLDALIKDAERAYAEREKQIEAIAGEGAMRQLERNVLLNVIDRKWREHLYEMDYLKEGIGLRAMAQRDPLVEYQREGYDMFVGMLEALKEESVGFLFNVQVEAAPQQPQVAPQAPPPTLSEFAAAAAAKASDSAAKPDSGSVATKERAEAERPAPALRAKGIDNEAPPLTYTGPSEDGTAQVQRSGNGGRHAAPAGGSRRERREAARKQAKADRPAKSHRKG

MtbSecA = MtbSecA (Mycobacterium tuberculosis, UniProt P9WGP5); experiment: cell-based
EcSecA [3] = biological target: T1, EcSecA; experiment: cell-based
Target sequence in this assay (P10408 whole entry): as the sequence (P10408 whole entry) above

S. aureus Mu50 = experiment: Bacteriostatic effect, S. aureus Mu50; conditions: Staphylococcus aureus
B. anthracis Sterne = experiment: microbe, parasite or virus in culture; format: cell-based; conditions: Bacillus anthracis, read-out: Bacteriostatic MIC95, B. anthracis Sterne
SaSecA1 = biological target: T2, SaSecA1 (Staphylococcus aureus, UniProt O06446); experiment: cell-based
T2 sequence (O06446 1-843): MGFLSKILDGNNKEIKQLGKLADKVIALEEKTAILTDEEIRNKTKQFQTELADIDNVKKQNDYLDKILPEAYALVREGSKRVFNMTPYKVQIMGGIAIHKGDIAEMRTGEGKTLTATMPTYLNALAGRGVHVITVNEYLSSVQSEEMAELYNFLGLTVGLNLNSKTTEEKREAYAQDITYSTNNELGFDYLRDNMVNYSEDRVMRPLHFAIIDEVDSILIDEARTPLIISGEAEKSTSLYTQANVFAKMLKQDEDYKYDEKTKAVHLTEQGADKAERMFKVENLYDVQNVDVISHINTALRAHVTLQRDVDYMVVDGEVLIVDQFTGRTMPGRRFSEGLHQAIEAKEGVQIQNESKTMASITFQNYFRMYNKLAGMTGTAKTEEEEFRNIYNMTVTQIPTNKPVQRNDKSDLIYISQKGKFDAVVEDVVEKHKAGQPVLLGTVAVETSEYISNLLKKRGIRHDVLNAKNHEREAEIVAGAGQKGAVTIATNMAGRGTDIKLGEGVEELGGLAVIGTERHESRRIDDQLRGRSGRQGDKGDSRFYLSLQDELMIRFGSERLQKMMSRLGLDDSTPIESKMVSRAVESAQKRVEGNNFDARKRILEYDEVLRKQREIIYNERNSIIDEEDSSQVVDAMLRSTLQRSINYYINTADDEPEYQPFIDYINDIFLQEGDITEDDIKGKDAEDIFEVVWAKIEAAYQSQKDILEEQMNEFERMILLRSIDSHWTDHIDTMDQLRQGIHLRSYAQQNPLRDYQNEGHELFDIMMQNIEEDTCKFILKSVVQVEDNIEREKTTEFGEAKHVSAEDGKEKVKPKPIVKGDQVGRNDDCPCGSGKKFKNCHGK

BsSecA2 = conditions: read-out: IC50, Intrinsic ATPase, BsSecA2; Table 1
BsSecA [4] = biological target: T3, BsSecA (Bacillus subtilis, UniProt P28366); experiment: biochemical; format: biochemical, B. subtilis
T3 sequence (P28366 whole entry): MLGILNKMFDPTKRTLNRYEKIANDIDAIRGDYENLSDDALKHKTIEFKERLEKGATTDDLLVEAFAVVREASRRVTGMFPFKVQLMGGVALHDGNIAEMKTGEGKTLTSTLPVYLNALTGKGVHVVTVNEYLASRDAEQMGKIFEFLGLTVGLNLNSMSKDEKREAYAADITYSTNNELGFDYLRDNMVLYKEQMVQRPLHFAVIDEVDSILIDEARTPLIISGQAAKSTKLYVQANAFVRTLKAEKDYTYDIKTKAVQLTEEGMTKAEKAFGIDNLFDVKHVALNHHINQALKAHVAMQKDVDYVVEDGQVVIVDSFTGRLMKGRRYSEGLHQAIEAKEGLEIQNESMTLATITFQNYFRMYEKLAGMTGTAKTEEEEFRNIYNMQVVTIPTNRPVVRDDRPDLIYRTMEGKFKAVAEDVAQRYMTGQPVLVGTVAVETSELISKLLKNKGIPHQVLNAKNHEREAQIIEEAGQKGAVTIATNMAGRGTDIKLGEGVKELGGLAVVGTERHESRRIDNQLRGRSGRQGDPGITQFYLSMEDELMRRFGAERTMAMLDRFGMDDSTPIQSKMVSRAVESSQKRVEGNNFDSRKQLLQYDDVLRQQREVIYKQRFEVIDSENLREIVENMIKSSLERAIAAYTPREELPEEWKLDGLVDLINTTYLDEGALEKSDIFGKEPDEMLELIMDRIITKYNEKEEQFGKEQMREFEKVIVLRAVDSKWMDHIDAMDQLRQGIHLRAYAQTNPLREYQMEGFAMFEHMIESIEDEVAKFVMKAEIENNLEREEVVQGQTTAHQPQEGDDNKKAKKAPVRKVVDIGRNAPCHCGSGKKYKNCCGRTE

EcSecA [5] = biological target: T1, EcSecA; experiment: biochemical; conditions: IC50, Translocation ATPase, Table 1
Target sequence in this assay (P0AG99 whole entry): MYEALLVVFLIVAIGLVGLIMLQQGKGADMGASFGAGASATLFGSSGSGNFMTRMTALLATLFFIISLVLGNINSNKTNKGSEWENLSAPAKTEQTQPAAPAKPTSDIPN
Target sequence in this assay (P10408 whole entry): as the sequence (P10408 whole entry) above
Target sequence in this assay (P0AGA2 whole entry, further chain): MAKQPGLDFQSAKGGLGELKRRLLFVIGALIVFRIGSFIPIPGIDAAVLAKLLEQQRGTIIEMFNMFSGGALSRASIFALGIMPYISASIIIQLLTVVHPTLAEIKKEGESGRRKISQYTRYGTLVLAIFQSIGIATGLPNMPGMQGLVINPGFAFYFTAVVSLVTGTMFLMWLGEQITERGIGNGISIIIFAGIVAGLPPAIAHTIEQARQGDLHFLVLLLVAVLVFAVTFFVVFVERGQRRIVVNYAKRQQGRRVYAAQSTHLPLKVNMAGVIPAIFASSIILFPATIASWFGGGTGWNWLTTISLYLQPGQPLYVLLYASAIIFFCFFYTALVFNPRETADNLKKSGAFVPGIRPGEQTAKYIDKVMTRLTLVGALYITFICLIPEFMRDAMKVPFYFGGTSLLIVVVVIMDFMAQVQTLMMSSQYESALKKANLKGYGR
Target sequence in this assay (P0AG96 whole entry, further chain): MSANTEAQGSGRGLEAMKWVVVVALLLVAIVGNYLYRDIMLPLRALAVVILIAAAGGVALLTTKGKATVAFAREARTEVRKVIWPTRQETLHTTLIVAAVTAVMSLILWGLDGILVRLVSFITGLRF

BsSecA [6] = biological target: T3, BsSecA; experiment: cell-based; set-up: species or system B. subtilis; conditions: IC50, Ion Channel activity, BsSecA, Table 1
EcSecA [7] = biological target: T1, EcSecA; experiment: biochemical; conditions: IC50, Protein Translocation, Table 1
Target sequence in this assay (P0AG99 whole entry): as the sequence (P0AG99 whole entry) above
Target sequence in this assay (P10408 whole entry): as the sequence (P10408 whole entry) above
Target sequence in this assay (P0AGA2 whole entry, further chain): as the sequence (P0AGA2 whole entry, further chain) above
Target sequence in this assay (P0AG96 whole entry, further chain): as the sequence (P0AG96 whole entry, further chain) above

SaSecA2 = biological target: T4, SaSecA2 (Staphylococcus aureus, UniProt Q2FUW6); experiment: ATPase activity assay (malachite green), SaSecA2
T4 sequence (Q2FUW6 1-796): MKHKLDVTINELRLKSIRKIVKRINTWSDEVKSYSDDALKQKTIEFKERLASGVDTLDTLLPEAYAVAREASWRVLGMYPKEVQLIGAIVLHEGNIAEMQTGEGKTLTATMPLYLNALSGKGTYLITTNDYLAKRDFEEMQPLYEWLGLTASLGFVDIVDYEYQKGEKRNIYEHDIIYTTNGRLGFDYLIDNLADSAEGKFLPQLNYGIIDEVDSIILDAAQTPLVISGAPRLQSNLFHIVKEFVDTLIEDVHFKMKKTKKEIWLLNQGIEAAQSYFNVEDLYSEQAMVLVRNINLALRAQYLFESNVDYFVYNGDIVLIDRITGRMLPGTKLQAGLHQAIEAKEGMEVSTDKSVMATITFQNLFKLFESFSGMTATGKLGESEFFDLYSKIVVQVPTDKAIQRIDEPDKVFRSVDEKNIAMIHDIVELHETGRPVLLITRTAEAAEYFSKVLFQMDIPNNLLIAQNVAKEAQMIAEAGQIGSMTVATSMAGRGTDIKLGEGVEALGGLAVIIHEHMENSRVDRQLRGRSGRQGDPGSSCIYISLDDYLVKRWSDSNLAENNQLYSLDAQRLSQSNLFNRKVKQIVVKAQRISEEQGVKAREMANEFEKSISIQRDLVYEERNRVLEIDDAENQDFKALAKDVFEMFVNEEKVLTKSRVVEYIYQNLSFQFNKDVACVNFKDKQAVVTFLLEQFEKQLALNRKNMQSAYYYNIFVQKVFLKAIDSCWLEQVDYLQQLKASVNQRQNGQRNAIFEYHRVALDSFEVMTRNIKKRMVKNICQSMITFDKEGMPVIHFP

S. pyogenes, MGAS5005 = experiment: MIC95, S. pyogenes MGAS5005; format: cell-based; conditions: Streptococcus pyogenes, MGAS5005; read-out: MIC95, S. pyogenes MGAS5005
SpSecA = SpSecA (Streptococcus pyogenes, UniProt Q99Y96); format: cell-based; conditions: read-out: IC50, Ion Channel activity, SpSecA
BaSecA1 = BaSecA1 (Bacillus anthracis, UniProt Q81X26); experiment: cell-based; conditions: IC50, Ion Channel activity, BGaSecA 1
Sequence of BaSecA1 (Q81X26 whole entry, looked up): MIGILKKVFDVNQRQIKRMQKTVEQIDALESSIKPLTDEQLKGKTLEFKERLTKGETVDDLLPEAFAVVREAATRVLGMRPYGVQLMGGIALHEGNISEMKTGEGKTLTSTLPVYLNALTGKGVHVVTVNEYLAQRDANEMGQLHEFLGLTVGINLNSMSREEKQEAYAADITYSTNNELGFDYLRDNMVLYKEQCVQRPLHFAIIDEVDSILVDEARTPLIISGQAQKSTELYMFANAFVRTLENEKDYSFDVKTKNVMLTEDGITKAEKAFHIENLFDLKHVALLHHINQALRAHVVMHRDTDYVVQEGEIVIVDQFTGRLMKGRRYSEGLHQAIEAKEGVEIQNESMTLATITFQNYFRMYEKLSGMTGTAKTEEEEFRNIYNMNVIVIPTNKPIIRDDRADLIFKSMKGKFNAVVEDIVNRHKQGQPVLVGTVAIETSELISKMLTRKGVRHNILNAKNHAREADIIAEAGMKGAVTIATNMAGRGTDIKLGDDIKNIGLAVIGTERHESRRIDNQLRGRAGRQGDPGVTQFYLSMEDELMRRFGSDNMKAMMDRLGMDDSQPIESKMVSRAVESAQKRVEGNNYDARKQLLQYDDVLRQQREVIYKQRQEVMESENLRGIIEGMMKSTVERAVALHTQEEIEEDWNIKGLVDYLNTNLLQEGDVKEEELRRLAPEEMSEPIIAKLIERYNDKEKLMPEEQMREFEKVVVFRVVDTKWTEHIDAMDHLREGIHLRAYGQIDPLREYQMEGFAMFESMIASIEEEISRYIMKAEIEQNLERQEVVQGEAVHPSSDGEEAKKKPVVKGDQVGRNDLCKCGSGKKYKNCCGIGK

EcSecA N68 = EcSecA N68 (Escherichia coli, UniProt P10408); experiment: biochemical; format: biochemical, E. coli
[8] = Bactericidal effect in the dark and under light (photooxidation); format: cell-based; conditions: under light versus dark
S. aureus 8325-4 = experiment: Bacteriostatic effect, S. aureus 8325-4 (WT); conditions: Staphylococcus aureus, 83254, read-out: Bacteriostatic effect, MIC, WT 8325-4
S. aureus N315 = experiment: Bacteriostatic effect, S. aureus N315; conditions: Staphylococcus aureus, N315, read-out: Bacteriostatic effect, MIC, S. aureus N315
[9] = system: secretion of α-hemolysin, enterotoxin B and TSST-1 by S. aureus Mu50; format: cell-based
PaSecA = PaSecA (Pseudomonas aeruginosa, UniProt Q9LCT3); experiment: cell-based; format: cell-based; conditions: IC50, Ion Channel activity, PASecA, Table 1
S. aureus 6538 = experiment: Bacteriostatic effect, S. aureus 6538; conditions: Staphylococcus aureus, 6538, read-out: Bacteriostatic effect, MIC, S. aureus 6538
S. aureus Mu3 = experiment: Bacteriostatic effect, S. aureus Mu3; conditions: Staphylococcus aureus, MU3, read-out: Bacteriostatic effect, MIC, S. aureus Mu3
[10] = MU50, read-out: Bacteriostatic MIC95, S. aureus Mu50, Table 2
[11] = MU50, read-out: MIC95 against drug resistant S. aureus Mu50
[12] = IC50, Intrinsic ATPase, SaSecA2, Table 1

SMILES | IC50 (EcSecA [1]) | Bactericidal (killing) effect with over expression of efflux pumps [2] | MIC (bacteriostatic) with over expression of efflux pumps [2] | IC50 (MsSecA) | IC50 (MtbSecA) | IC50 (EcSecA [3]) | MIC (S. aureus Mu50; [10]) | MIC (S. aureus Mu50; [11]) | MIC (B. anthracis Sterne) | IC50 (BsSecA2) | IC50 (BsSecA [4]) | IC50 (EcSecA [5]) | IC50 (BsSecA [6]) | IC50 (EcSecA [7]) | IC50 (SaSecA2; [12]) | IC50 (SpSecA) | IC50 (BaSecA1) | IC50 (EcSecA N68) | other results
CSc1nc(Sc2nnc(-c3cc(C(F)(F)F)cc(C(F)(F)F)c3)[nH]2)cc(Sc2nnc(-c3cc(C(F)(F)F)cc(C(F)(F)F)c3)[nH]2)n1 [SCA-21] | 32 µM | not attenuated | did not increase | 2 µM | 2 µM | 2.4 µM | 1.5 µg/mL | 1.5 µM | 3 µg/mL (≈ 4.01 µM) | 45 µM | > 100 µM | 20 µM | 2.6 µM | 21 µM | 43 µM | 1 µM | 1.5 µM | 18 µM | IC50 (SaSecA1): 1.6 µM; MIC (S. pyogenes, MGAS5005): 0.39 µM (≈ 0.292 µg/mL)
Oc1ccc2c(c1)Oc1cc(O)ccc1C2C1CCCC1 [SCA-41] | 30 µM | not attenuated | did not increase | 3.5 µM | 3.2 µM | 3.4 µM | 1.7 µg/mL | 1.7 µM | 1.1 µg/mL (≈ 3.9 µM) | 30 µM | 30 µM | 15 µM | 3 µM | 55 µM | 6 µM | 3 µM | 3.8 µM | 8 µM | Change of MIC on overexpression or deletion of NorA or MepA [2]: did not significantly change; Effect of light on the bactericidal effect [8]: not affected by light; MIC (S. aureus 8325-4): 11.8 µg/mL (≈ 41.8 µM); MIC (S. aureus N315): 14.1 µg/mL (≈ 49.9 µM); MIC (S. aureus Mu50; MU50, read-out: Bacteriostatic effect MIC, S. aureus Mu50, Table 10 and Example 4): 8.8 µg/mL; MIC (S. aureus Mu50; MU50, read-out: Bacteriostatic effect, MIC, S. aureus Mu50, Table 8): 8.8 µg/mL; Amount of α-hemolysin, enterotoxin B, and TSST-1 in the supernatant [9]: significantly decreased; IC50 (PaSecA): 3.6 µM; MIC (S. aureus 6538): 10.6 µg/mL (≈ 37.5 µM); MIC (S. aureus Mu3): 14.1 µg/mL (≈ 49.9 µM); IC50 (SaSecA2; IC50, ATPase activity, SaSecA2, Table 7): 32.5 µM
